Results as given in US10100048B2, “Heterocyclic compounds and their use as glycogen synthase kinase-3 inhibitors” (AbbVie Deutschland GmbH & Co. KG, priority 2010, dated 2018).
Counter-ions that a name gives are not always drawn.

Biological target: human Glycogen Synthase Kinase-3 beta (hGSK-3β) (Homo sapiens (Human), UniProt P49841)
Assay: Biochemical hGSK-3Beta Assay (33P-ATP phosphorylation of biotinylated peptide substrate, Flash-plate)
Settings: 0.0125 U hGSK-3β, 10 μM ATP, 1 μM substrate, 30 minutes at room temperature; read-out: GSK-3β IC50
Procedure: Methods—Biochemical hGSK-3Beta Assay
Compounds were tested for their ability to inhibit human Glycogen Synthase Kinase-3 beta (hGSK-3β) to phosphorylate biotin-[…](pS)EDEEE. Compounds were incubated with 0.5 μCi 33P-ATP, 10 μM ATP, 0.0125 U hGSK-3β (Upstate cell signaling solutions) and 1 μM substrate (biotin-[…](pS)EDEEE) in 50 mM HEPES, 10 mM MgCl2, […], 1 mM DTT, 0.0075% Triton, 2% DMSO (total volume 50 μL) for 30 minutes at room temperature. The incubation was stopped by addition of an equal volume of 100 mM EDTA, 4M NaCl. 80 μL of this mixture was added to streptavidin-coated Flash-plates (PerkinElmer). Following a wash step, 33P incorporation was quantified on a MicroBeta microplate liquid scintillation counter (Perkin Elmer). IC50s were determined by fitting a sigmoidal dose-response curve to the counts obtained at the different concentrations in GraphPad Prism.

Sequence of human Glycogen Synthase Kinase-3 beta (hGSK-3β) (P49841 whole entry): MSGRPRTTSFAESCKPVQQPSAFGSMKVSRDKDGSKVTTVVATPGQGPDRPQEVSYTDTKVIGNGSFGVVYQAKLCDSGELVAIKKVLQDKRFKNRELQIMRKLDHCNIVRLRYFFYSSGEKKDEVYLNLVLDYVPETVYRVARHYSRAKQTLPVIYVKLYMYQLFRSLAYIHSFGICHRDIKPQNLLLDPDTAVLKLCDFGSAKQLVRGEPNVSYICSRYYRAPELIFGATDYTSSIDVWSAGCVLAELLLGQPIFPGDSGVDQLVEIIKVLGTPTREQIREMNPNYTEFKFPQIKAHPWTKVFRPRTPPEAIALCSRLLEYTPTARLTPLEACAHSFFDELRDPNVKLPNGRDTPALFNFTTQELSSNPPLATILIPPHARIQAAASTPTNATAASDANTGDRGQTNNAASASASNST

Row | Compound | IC50 [nM]
1 | CC(C)(C)OC(=O)N1CCc2nc(C3C(=O)Nc4ccc(C#N)cc43)ccc2C1 (centres unmarked) [Example 2.2, tert-Butyl 2-(5-cyano-2-oxoindolin-3-yl)-7,8-dihydro-1,6-naphthyridine-6(5H)-carboxylate] | < 100
2 | COC1CCCc2nc(C3C(=O)Nc4ccc(C#N)cc43)ccc21 (centres unmarked) [Example 6, 3-(5-Methoxy-5,6,7,8-tetrahydroquinolin-2-yl)-2-oxoindoline-5-carbonitrile] | < 100
3 | N#Cc1ccc2c(c1)C(c1ccc3c(n1)CCNC3)C(=O)N2 (centres unmarked) [Example 2, 2-Oxo-3-(5,6,7,8-tetrahydro-1,6-naphthyridin-2-yl)indoline-5-carbonitrile] | < 100
4 | N#Cc1ccc2c(c1)C(c1ccc3c(n1)CNC3)C(=O)N2 (centres unmarked) [Example 5, 3-(6,7-Dihydro-5H-pyrrolo[3,4-b]pyridin-2-yl)-2-oxoindoline-5-carbonitrile hydrochloride] | < 100
5 | N#Cc1ccc2c(c1)C(c1ccc3c(n1)CCCC3O)C(=O)N2 (centres unmarked) [Example 1, 3-(5-Hydroxy-5,6,7,8-tetrahydroquinolin-2-yl)-2-oxoindoline-5-carbonitrile] | < 100
